# In patent US12310929B2, “Use of rasagiline for the treatment of restless legs syndrome” (TEVA PHARMACEUTICAL INDUSTRIES, LTD., priority 2006, dated 2025):
# Like-named read-outs stand apart in the source and are kept apart here.
# Experiments:
# [1] = system: early Parkinson's disease subjects; conditions: rasagiline-treated subjects; cited from earlier work
# [2] = system: old rats with periodic hindlimb movements; conditions: daily treatment; 3 consecutive nights beginning 7 days after onset; vs vehicle-treated rats
# Method: In a group of old rats 16-20 months, sleep-wake behavior is recorded and hindlimb movements are detected by means of a magneto-inductive device during two 12-h light periods (Baier P. C. et al., Assessment of spontaneously occurring periodic limb movements in sleep in the rat, J. Neurol. Sci. 2002; 198(1-2): 71-77). Periodic hindlimb movements (PHLM) during nonrapid eye movement sleep (NREM) are identified according to modified human criteria in some of the rats, which are then selected for the rasagiline study. Half the rats are treated daily with rasagiline while the other half receive vehicle. Incidence of PHLM is determined for 3 consecutive nights, beginning 7 days after onset of treatment.
# RLS subjects [3] = conditions: for IRLS Total (Absolute Change) Mean / IRLS Total (Absolute Change) Median / IRLS Total (Percent Change) Mean / IRLS Total (Percent Change) Median / IRLS Total Mean / IRLS Total Median: rasagiline 1 mg/day oral
# Method: (§1) This was the first clinical study in which rasagiline was administered to RLS subjects. The dosage regimen of 1 mg/day rasagiline was chosen based on the optimal dosage regimen for the symptomatic treatment of PD. […] Therefore, in the event that a subject could not tolerate the 1 mg daily dose of rasagiline, a daily dose of 0.5 mg rasagiline was permitted. Rasagiline was administered orally as a tablet. Both the 1 mg and 0.5 mg rasagiline tablets were beveled round tablets, flat, white to off-white, scored on one side, plain on the other side. Teva Pharmaceutical Industries Ltd. was responsible for the manufacture and primary packaging of study medications according to current Good Manufacturing Practice (cGMP) principles and guidelines applicable to investigational medicinal products.
# IRLS (International Restless Legs Scale)
# The IRLS scale is comprised of 10 items designed to assess the severity of sensory and motor symptoms, sleep disturbance, daytime somnolence, and impact on activities of daily living and mood associated with RLS. All items receive a grade in the range 0 to 4 (0=absence of a problem, 4=very severe problem) giving a maximum score of 40.
# The investigator scored subjects on the IRLS at all scheduled study visits. The primary efficacy endpoint was based on the change from baseline to weeks 2, 4, and 8 in IRLS scores.
# Each of 10 items were graded on a scale between 0 and 4 where 0 denotes the absence of a problem, and 4 a very severe problem.
# RLS subjects [4] = conditions: for CGI-I Total Mean / CGI-I Total Median: scale 1-7, rasagiline 1 mg/day oral
# Method: as §1
# Subjects were scored on this scale at weeks 2, 4, and 8. The mean score at each of these time points was calculated as a secondary efficacy endpoint.
smiles,measurement,setting,value
"C#CCN[C@@H]1CCc2ccccc21 [rasagiline, R-(+)-N-propargyl-1-aminoindan]",most commonly reported adverse events,[1],"pain, headache and dizziness"
same,"side effects typical of dopaminergic medications (hallucinations, somnolence, edema, nausea, vomiting, diarrhea)",[1],infrequently reported
same,incidence of periodic hindlimb movements (PHLM),[2],significantly fewer
same,IRLS Total (Absolute Change) Mean,"RLS subjects [3]; VISIT WEEK 1, N=2",−3.00
same,IRLS Total (Absolute Change) Median,"RLS subjects [3]; VISIT WEEK 1, N=2",−3.00
same,IRLS Total (Percent Change) Mean,"RLS subjects [3]; VISIT WEEK 1, N=2",−11.54%
same,IRLS Total (Percent Change) Median,"RLS subjects [3]; VISIT WEEK 1, N=2",−11.54%
same,IRLS Total Mean,"RLS subjects [3]; VISIT WEEK 1, N=2",29.00
same,IRLS Total Median,"RLS subjects [3]; VISIT WEEK 1, N=2",29.00
same,IRLS Total (Absolute Change) Mean,"RLS subjects [3]; VISIT WEEK 3, N=1",−14.00
same,IRLS Total (Absolute Change) Median,"RLS subjects [3]; VISIT WEEK 3, N=1",−14.00
same,IRLS Total (Percent Change) Mean,"RLS subjects [3]; VISIT WEEK 3, N=1",−53.85%
same,IRLS Total (Percent Change) Median,"RLS subjects [3]; VISIT WEEK 3, N=1",−53.85%
same,IRLS Total Mean,"RLS subjects [3]; VISIT WEEK 3, N=1",12.00
same,IRLS Total Median,"RLS subjects [3]; VISIT WEEK 3, N=1",12.00
same,IRLS Total (Absolute Change) Mean,"RLS subjects [3]; VISIT WEEK 4, N=2",−6.50
same,IRLS Total (Absolute Change) Median,"RLS subjects [3]; VISIT WEEK 4, N=2",−6.50
same,IRLS Total (Percent Change) Mean,"RLS subjects [3]; VISIT WEEK 4, N=2",−25.00%
same,IRLS Total (Percent Change) Median,"RLS subjects [3]; VISIT WEEK 4, N=2",−25.10%
same,IRLS Total Mean,"RLS subjects [3]; VISIT WEEK 4, N=2",25.50
same,IRLS Total Median,"RLS subjects [3]; VISIT WEEK 4, N=2",25.50
same,mean IRLS Rating Scale score,"RLS subjects [3]; after 2 weeks, 2 subjects, baseline mean 32",29
same,IRLS Rating Scale score,"RLS subjects [3]; at 4 weeks, one subject",13
same,decrease from baseline in IRLS Rating Scale score,"RLS subjects [3]; at 4 weeks, one subject",50%
same,IRLS score,"RLS subjects [3]; by 8 weeks, remaining subject",12
same,decrease from baseline in IRLS score,"RLS subjects [3]; by 8 weeks, remaining subject",54%
same,effect on the symptoms of RLS,RLS subjects [3]; in at least a subset of RLS patients,clinically significant effect
same,IRLS Rating Scale score,"RLS subjects [3]; week 4, subject who discontinued, unchanged from baseline",38
same,CGI-I Total Mean,"RLS subjects [4]; VISIT WEEK 2, N=2",3.50
same,CGI-I Total Median,"RLS subjects [4]; VISIT WEEK 2, N=2",3.0
same,CGI-I Total Mean,"RLS subjects [4]; VISIT WEEK 4, N=2",3.50
same,CGI-I Total Median,"RLS subjects [4]; VISIT WEEK 4, N=2",3.50
same,CGI-I Total Mean,"RLS subjects [4]; VISIT WEEK 8, N=1",1.00
same,CGI-I Total Median,"RLS subjects [4]; VISIT WEEK 8, N=1",4.00
same,RLS symptoms on the CGI-I rating scale,"RLS subjects [4]; by eight weeks, remaining subject",Very Much Improved
